Measurements as given in patent US12435031B2, “Compound with broad-spectrum antibacterial activity and its antibacterial composition” (CHINA AGRICULTURAL UNIVERSITY, priority 2023, dated 2025).
Converted amounts (≈) assume the structure as drawn.

Test system: Clostridium perfringens
Assay: microbe, parasite or virus in culture
Format: cell-based
Conditions: for MIC50: Clostridium perfringens

Row | Compound | MIC50 [µg/mL] | MIC value against Clostridium perfringens (strain A3-1 (A-type)) [µg/mL] | MIC value against Clostridium perfringens (strain A3-2 (A-type)) [µg/mL] | MIC value against Clostridium perfringens (strain A57-1 (A-type)) [µg/mL] | MIC value against Clostridium perfringens (strain B4 (B-type)) [µg/mL] | MIC value against Clostridium perfringens (strain B5 (B-type)) [µg/mL] | MIC value against Clostridium perfringens (strain C3 (C-type)) [µg/mL] | MIC value against Clostridium perfringens (strain C8 (C-type)) [µg/mL] | MIC value against Clostridium perfringens (strain C59-1 (C-type)) [µg/mL] | MIC value against Clostridium perfringens (strain D14B (D-type)) [µg/mL] | MIC value against Clostridium perfringens (strain F5-2 (F-type)) [µg/mL] | MIC value against Clostridium perfringens (strain F6-1 (F-type)) [µg/mL] | MIC value against Clostridium perfringens (strain F6-2 (F-type)) [µg/mL] | MIC value against Clostridium perfringens (strain F6-2-1 (F-type)) [µg/mL] | MIC value against Clostridium perfringens (strain F6-2-2 (F-type)) [µg/mL] | MIC value against Clostridium perfringens (strain F7-1 (F-type)) [µg/mL] | MIC value against Clostridium perfringens (strain F8-1 (F-type)) [µg/mL] | MIC value against Clostridium perfringens (strain H12-1 (H-type)) [µg/mL] | MIC value against Clostridium perfringens (strain H12-2 (H-type)) [µg/mL] | MIC value against Clostridium perfringens (strain H13-1 (H-type)) [µg/mL] | further results
1 | Cc1cc(C(F)(F)F)ccc1NC(=O)c1cc(Cl)ccc1O [BAB151] | 8 (≈ 24.3 µM) | – | – | – | – | – | – | – | – | – | – | – | – | – | – | – | – | – | – | – | –
2 | O=C(Nc1cc(Cl)cc(Br)c1)c1cc(Cl)ccc1O [BAB142] | 16 (≈ 44.3 µM) | – | – | – | – | – | – | – | – | – | – | – | – | – | – | – | – | – | – | – | –
3 | Penicillin | – | 0.25 | 0.5 | 0.25 | 0.5 | 0.5 | 2 | 0.25 | 0.125 | 0.5 | 0.125 | 0.25 | 0.125 | 0.25 | 0.25 | 0.5 | 0.25 | 0.25 | 0.125 | 0.0625 | MIC value against Clostridium perfringens (strain H14-1 (H-type)): 0.25 µg/mL; MIC value against Clostridium perfringens (strain H14-2 (H-type)): 1 µg/mL; MIC value against Clostridium perfringens (strain H14-4 (H-type)): 0.125 µg/mL; MIC value against Clostridium perfringens (strain H15-1 (H-type)): 0.25 µg/mL; MIC value against Clostridium perfringens (strain H15-2 (H-type)): 0.25 µg/mL; MIC value against Clostridium perfringens (strain H15-3 (H-type)): 0.25 µg/mL; MIC value against Clostridium perfringens (strain H16 (H-type)): 0.125 µg/mL
4 | Cc1c(C(=O)C=Cc2ccccc2)[n+](=O)c2ccccc2n1[O-] [QCT, Quincetone] | – | 0.5 (≈ 1.63 µM) | ≤0.25 | ≤0.25 | ≤0.25 | ≤0.25 | 1 (≈ 3.26 µM) | ≤0.25 | ≤0.25 | ≤0.25 | 0.5 (≈ 1.63 µM) | 4 (≈ 13.1 µM) | 0.5 (≈ 1.63 µM) | 1 (≈ 3.26 µM) | ≤0.25 | ≤0.25 | 0.5 (≈ 1.63 µM) | ≤0.25 | ≤0.25 | ≤0.25 | MIC value against Clostridium perfringens (strain H14-1 (H-type)): ≤0.25 µg/mL; MIC value against Clostridium perfringens (strain H14-2 (H-type)): 0.5 µg/mL (≈ 1.63 µM); MIC value against Clostridium perfringens (strain H14-4 (H-type)): ≤0.25 µg/mL; MIC value against Clostridium perfringens (strain H15-1 (H-type)): ≤0.25 µg/mL; MIC value against Clostridium perfringens (strain H15-2 (H-type)): ≤0.25 µg/mL; MIC value against Clostridium perfringens (strain H15-3 (H-type)): 0.5 µg/mL (≈ 1.63 µM); MIC value against Clostridium perfringens (strain H16 (H-type)): ≤0.25 µg/mL
